Measurements taken from US5750321A, “Process for buffering concentrated aqueous slurries” (priority 1997, dated 1998).
Entries after “also recorded” stand apart in the source; their conditions may differ. Like-named read-outs stand apart in the source and are kept apart here.

Columns and labels:
[1] = Buffering of S1 slurry: pH measured after additions of aqueous buffering salt; type: physicochemical; details: small additions of 0.1 mole/L salt to S1 slurry
Protocol: Measurements of pH were made using a Corning combination pH electrode, calibrated with VWR buffers of pH 4.0 and pH 7.0, using a Radiometer Copenhagen PHM63 pH meter. Equilibrated measurements were taken at about 24° C. while stirring the solutions or slurries.
About 97.0 g of the above described S1 slurry were placed in a 200 mL beaker upon a magnetic stirrer, and this slurry was moderately stirred using a magnetic stirring bar.
About 93.9 g of the above described S1 slurry were placed in a 200 mL beaker upon a magnetic stirrer, and was moderately stirred. […] Aliquots of 0.1 mole/L aqueous sodium citrate were added, and pH was recorded after each addition.
About 95.7 g of the above described S1 slurry were placed in a 200 mL beaker with moderate stirring. […] Aliquots of 0.1 mole/L aqueous sodium tartrate were added, and pH was recorded.
About 95.4 g of the above described S1 slurry were placed in a 200 mL beaker and was moderately stirred.
About 93.3 g of the above described S1 slurry were placed in a 200 mL beaker and stirred.

[2] = Table 1; cited from earlier work
[3] = Electroacoustic sonic amplitude (ESA) electrokinetics of dye slurries as a function of pH; type: physicochemical
[4] = Langmuir 8, 291 (1992), cited from earlier work
[5] = FD2 slurry without surfactant, Texter

SMILES: CC(=O)O [sodium acetate]
- effect on slurry pH / pH control (in words) [1]: increases the slurry pH to a significant extent; also recorded: significantly increases the slurry pH

SMILES: O=C(O)c1ccco1 [Furoic acid]
- pKa at 25° C. [2]: 3.17

SMILES: O=C(O)c1ccccc1 [sodium benzoate]
- effect on slurry pH / pH control (in words) [1]: very effective at providing significant pH control at relatively low concentrations

SMILES: O=C([O-])c1ccccc1O.[Na+] [sodium salicylate]
- effect on slurry pH / pH control (in words) [1]: provides some pH control

SMILES: CC1=NN(c2ccc(C(=O)O)cc2)C(=O)C1=CC=Cc1c(C)nn(-c2ccc(C(=O)O)cc2)c1O [FD1]
- lowest apparent pKa relative to FD2 ([3]; FD1 slurries compared with FD2): three pH units lower
- lowest apparent pKa ([3]; FD1 slurries without dispersing aid, FIG. 2): about 2
- solubility of the dye with increasing pH ([3]; above pH 5, upturn in ESA): marked increased solubility
- intrinsic electrokinetic charge ([3]; sign of charge, ESA): negative

SMILES: O=S1(=O)CCCCN1
- pKa at 25° C. [2]: 12.02

SMILES: CC1=NN(c2ccc(C(=O)O)cc2)C(=O)C1=Cc1c(C)nn(-c2ccc(C(=O)O)cc2)c1O [FD2]
- pH interval of abrupt S-shaped ESA transition [4, 5]: 4-6 pH
- predominately carboxy group-based surface pKa [4, 5]: about 5.0
- intrinsic electrokinetic charge ([4]; sign of charge, shown earlier by Texter): negative
